Legend:
rice = experiment: High-temperature stress resistance in rice (fresh weight of aboveground part), Example 3; assay type: in vivo, rice (variety: Nipponbare); conditions: 0.5 mM in medium, 24 h before 44° C. for 3 hours, then 22° C. 3 days
Protocol: A wild-type rice strain (the variety: Nipponbare) was used as an experimental material. Seeds were purchased from Nouken (https://nouken-seed.shop-pro.jp/).
A liquid medium consisting of a ½ Murashige and Skoog Plant Salt Mixture (Nacalai) was used as a growth medium.
With the use of a 50-ml Falcon tube, rice seeds were sterilized for 30 minutes with the use of a Kitchen Haiter® liquid (Kao Corporation) diluted to one-half concentration with distilled water for 30 minutes and washed 5 times with sterile distilled water. The tube was laid down, sterile distilled water was introduced thereinto in an amount that would sufficiently soak the washed seeds, and culture was performed in an incubator for 3 days to germinate the seeds. The incubator was maintained at a temperature of 30° C. for a daily cycle of 16 hours light and 8 hours darkness.
The growth medium was dispensed at 3 ml/well on a 12-well microplate (IWAKI) 3 days after the initiation of incubation, 3 grains of the germinated seeds were inoculated in each well, and the resultants were handled as experimental materials. […]
High-temperature treatment was performed with the use of an incubator. […] Thereafter, the plate was incubated in an incubator maintained at 22° C. for 3 days, plants were collected, and the fresh weight of the aboveground part excluding seeds and roots was quantified.

HSFA2 = HSFA2 gene expression by real-time PCR, Example 5; assay type: in vivo; conditions: Arabidopsis thaliana; 0.1 mM in medium, 2 hours after application, 22° C.; read-out: HSFA2 expression level, increase vs group not subjected to the treatment
Protocol: The materials as used in Example 1 were used.
The method as employed in Example 1 was employed.
N-acetylglutamic acid was applied to Arabidopsis thaliana 7 days after inoculation to the final concentration of 0.1 mM in the medium, followed by incubation for 2 hours or 6 hours. The incubator was maintained at a temperature of 22° C. for a daily cycle of 16 hours light and 8 hours darkness. After incubation, the samples were frozen with liquid nitrogen, and RNA was extracted using the RNeasy Plant Mini Kit (Thermo Fischer Scientific).
cDNA that would be necessary as a real-time PCR template was synthesized from the RNA obtained. 500 ng total RNA was used for each sample, and cDNA was synthesized using the Verso cDNA Synthesis Kit (Thermo Fischer Scientific). The synthesized cDNA was diluted to 5-fold with sterile distilled water and subjected to real-time PCR. For real-time PCR, a reaction solution containing HSFA2 (AGI code: AT2G26150) and HSP17.6C (AGI code: AT1G53540) as the target genes, ACTIN2 (AGI code: AT3G18780) as the reference gene, and TB Green Ex Taq II (TaKaRa) was prepared. PCR was performed with the use of the LightCycler® 480 System (Roche) with the number of amplification cycles of 50. […]
Thereafter, the relative expression level of the target genes upon N-acetylglutamic acid treatment were calculated by the ΔΔCt method using the Cp values obtained by real-time PCR.

Arabidopsis thaliana = experiment: Oxidation stress resistance against methyl viologen (leaf chlorosis, chlorophyll content), Example 8; assay type: in vivo, Arabidopsis thaliana (Col-0); conditions: with 5 μM methyl viologen, 2 days
Protocol: A wild-type Arabidopsis thaliana strain (accession: Col-0) was used as an experimental material. Seeds were purchased from Inplanta Innovations Inc.
A Murashige and Skoog Plant Salt Mixture 2.2 g (Nacalai tesque) and sucrose 10 g (FUJIFILM Wako) were dissolved in 1 l of pure water, a pH was adjusted to 5.8, and the resultant was sterilized in an autoclave (121° C., 20 minutes).
Arabidopsis thaliana seeds were sterilized by incubation with the use of a Kitchen Haiter® (Kao Corporation) diluted to 2-fold with pure water for 3 minutes. After the seeds were washed with sterile water 3 times, the seeds soaked in sterile water were incubated at 4° C. in the dark for 1 day in order to germinate the seeds at the same time. […]
Leaf chlorosis is observed in plants upon oxidation stress exposure. Thus, an extent of chlorosis was evaluated by measuring the content of the green pigment chlorophyll in leaves. The chlorophyll content was quantified in accordance with the method of Yamaguchi et al. (Nature Commun., Jun. 9, 2021; 12 [1]: 3480). […] The absorbance of the extract was measured at 647 nm and 664 nm, respectively, to calculate the chlorophyll content. The chlorophyll content was calculated in accordance with the formula: 19.43×A647+8.05×A664. The calculated value was divided by the plant weight per well, so as to eliminate the influence of individual sizes.

CC(=O)N[C@@H](CCC(=O)O)C(=O)O [N-acetylglutamic acid]
decrease in the fresh weight of the aboveground part caused by high-temperature treatment (rice): suppressed to a significant extent | fold induction at 100 µM (HSFA2): 2.5 | chlorophyll content of the MV-treated groups (Arabidopsis thaliana; 0, 0.01, 0.1, and 0.4 mM, fresh weight basis): increased as the N-acetylglutamic acid concentration was increased | leaf chlorosis in MV-treated group (Arabidopsis thaliana; 0.4 mM): substantially no leaf chlorosis was observed
